6 compounds from patent US10670605B2, “Cysteine reactive probes and uses thereof” (The Scripps Research Institute, priority 2015, dated 2020) can be followed below.

What all share (assay): Competitive isoTOP-ABPP, cell lysates
What all share (assay type): binding

The target of one experiment is T1, PDIA6 C190 (Q15084) (Homo sapiens, UniProt Q15084).
T1 sequence (Q15084 20-440): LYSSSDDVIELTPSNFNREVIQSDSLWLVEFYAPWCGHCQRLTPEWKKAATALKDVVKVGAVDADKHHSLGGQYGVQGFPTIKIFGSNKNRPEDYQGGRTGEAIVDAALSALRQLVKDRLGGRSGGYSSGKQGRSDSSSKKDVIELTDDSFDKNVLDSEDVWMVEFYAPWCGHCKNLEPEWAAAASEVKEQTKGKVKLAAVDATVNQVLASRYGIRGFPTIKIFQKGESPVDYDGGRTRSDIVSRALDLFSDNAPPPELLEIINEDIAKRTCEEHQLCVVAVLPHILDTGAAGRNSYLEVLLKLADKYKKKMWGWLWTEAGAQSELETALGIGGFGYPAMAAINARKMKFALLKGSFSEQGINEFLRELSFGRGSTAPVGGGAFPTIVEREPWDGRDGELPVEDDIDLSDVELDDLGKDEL
To be noted: for isoTOP-ABPP reactivity profile ratio, Q15084_C190: 500 μm. Here is the method:
(§1) TEV digests were pressure loaded onto a 250 μm (inner diameter) fused silica capillary column packed with C18 resin (Aqua 5 μm, Phenomenex). The samples were analyzed by multidimensional liquid chromatography tandem mass spectrometry (MudPIT), using an LTQ-Velos Orbitrap mass spectrometer (Thermo Scientific) coupled to an Agilent 1200-series quaternary pump. The peptides were eluted onto a biphasic column with a 5 μm tip (100 μm fused silica, packed with C18 (10 cm) and bulk strong cation exchange resin (3 cm, SCX, Phenomenex,)) in a 5-step MudPIT experiment, using 0%, 30%, 60%, 90%, and 100% salt bumps of 500 mM aqueous ammonium acetate and using a gradient of 5-100% buffer B in buffer A (buffer A: 95% water, 5% acetonitrile, 0.1% formic acid; buffer B: 5% water, 95% acetonitrile, 0.1% formic acid) as has been described in Weerapana et al. Nat Protoc 2:1414-1425 (2007). Data was collected in data-dependent acquisition mode with dynamic exclusion enabled (20 s, repeat of 2). One full MS (MS1) scan (400-1800 m/z) was followed by 30 MS2 scans (ITMS) of the nth most abundant ions.
(§2) The ratios of heavy/light for each unique peptide (DMSO/compound treated; isoTOP-ABPP ratios, R values) were quantified with in-house CIMAGE software, using default parameters (3 ms s per peak and signal to noise threshold 2.5). Site-specific engagement of electrophilic fragments was assessed by blockade of IA-alkyne probe labeling. […] Ratios for unique peptide entries were calculated for each experiment; overlapping peptides with the same modified cysteine (e.g. different charge states, MudPIT chromatographic steps or tryptic termini) were grouped together and the median ratio was reported as the final ratio (R). The peptide ratios reported by CIMAGE were further filtered to ensure the removal or correction of low quality ratios in each individual dataset. The quality filters applied were the following: removal of half tryptic peptides; for ratios with high standard deviations from the median (90% of the median or above) the lowest ratio was taken instead of the median; removal of peptides with R=20 and only a single ms2 event triggered during the elution of the parent ion; manual annotation of all the peptides with ratios of 20, removing any peptides with low-quality elution profiles that remained after the previous curation steps. Proteome reactivity values for individual fragments were computed as the percentage of the total quantified cysteine-containing peptides with R values≥4 (defined as liganded cysteines) for each replicate experiment and the final proteome reactivity value was calculated as the mean for all replicate experiments for each fragment from both MDA-MB-231 and Ramos cellular proteomes.
(§3) Biological replicates of the same compound and cell-line were averaged if the standard deviation was below 60% of the mean; otherwise the lowest value of the ratio set was taken.

Another experiment deals with PRMT1 C109 (Q99873) (Homo sapiens, UniProt Q99873). To be noted: for isoTOP-ABPP reactivity profile ratio, Q99873_C109: 500 μm; for isoTOP-ABPP ratio, Q99873_C109: 500 μM, invitro. Here is the method: as §1, §2, §3
The target of a further experiment is T2, MGMT C150 (P16455) (Homo sapiens, UniProt P16455).
T2 sequence (P16455 1-207): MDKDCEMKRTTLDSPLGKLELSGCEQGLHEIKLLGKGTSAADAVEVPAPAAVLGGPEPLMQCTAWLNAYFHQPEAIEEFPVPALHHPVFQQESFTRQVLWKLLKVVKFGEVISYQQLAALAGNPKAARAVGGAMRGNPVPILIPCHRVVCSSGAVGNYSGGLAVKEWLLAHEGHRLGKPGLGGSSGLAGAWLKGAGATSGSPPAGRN
Here is the method:
as §1, §2, §3

In another experiment the target is GSTP1 C48 (P09211) (Homo sapiens, UniProt P09211). To be noted: for isoTOP-ABPP reactivity profile ratio, P09211_C48: 500 μm; for isoTOP-ABPP ratio, P09211_C48: 500 μM, invitro. Here is the method: as §1, §2, §3
The target of the next experiment is XPO1 C34 (O14980) (Homo sapiens, UniProt O14980). To be noted: for isoTOP-ABPP reactivity profile ratio, O14980_C34: 500 μm; for isoTOP-ABPP ratio, O14980_C34: 500 μM, invitro. Here is the method:
as §1, §2, §3

The target of a further experiment is T3, PCK2 C306 (Q16822) (Homo sapiens, UniProt Q16822).
T3 sequence (Q16822 33-640): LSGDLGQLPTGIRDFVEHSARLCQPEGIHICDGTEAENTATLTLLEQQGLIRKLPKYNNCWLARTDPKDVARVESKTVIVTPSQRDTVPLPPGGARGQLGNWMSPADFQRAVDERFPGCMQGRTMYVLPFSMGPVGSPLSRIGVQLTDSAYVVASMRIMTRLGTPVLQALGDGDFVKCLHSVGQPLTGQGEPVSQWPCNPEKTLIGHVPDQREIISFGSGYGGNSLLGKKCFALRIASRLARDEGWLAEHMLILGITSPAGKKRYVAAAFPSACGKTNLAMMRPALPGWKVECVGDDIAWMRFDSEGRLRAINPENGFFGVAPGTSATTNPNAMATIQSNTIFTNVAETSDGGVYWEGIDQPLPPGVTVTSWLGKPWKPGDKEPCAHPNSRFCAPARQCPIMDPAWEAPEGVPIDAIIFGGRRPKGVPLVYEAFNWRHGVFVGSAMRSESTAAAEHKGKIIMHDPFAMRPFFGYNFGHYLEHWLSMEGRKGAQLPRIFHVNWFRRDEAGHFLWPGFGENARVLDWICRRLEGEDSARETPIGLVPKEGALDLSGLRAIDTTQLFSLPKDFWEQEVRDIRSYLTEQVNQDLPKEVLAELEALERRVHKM
To be noted: for isoTOP-ABPP reactivity profile ratio, Q16822_C306: 500 μm; for isoTOP-ABPP ratio, Q16822_C306: 500 μM, invitro. Here is the method:
as §1, §2, §3

In a further experiment the target is IDH1 C269 (O75874) (Homo sapiens, UniProt O75874). To be noted: 500 μm, in-vitro_ramos_231. Here is the method:
as §1, §2, §3
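For isoTOP-ABPP reactivity profile ratio, P09211 C48 in this document: Heavy/light ratio DMSO over fragment-treated so higher means more cysteine engagement.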
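For isoTOP-ABPP reactivity profile ratio, Q15084 C190 in this document: Heavy/light ratio DMSO over fragment-treated so higher means more cysteine engagement.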
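For isoTOP-ABPP reactivity profile ratio, Q99873 C109 in this document: Heavy/light ratio DMSO over fragment-treated so higher means more cysteine engagement.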

Chain of PRMT1 C109 (Q99873) (Q99873 whole entry): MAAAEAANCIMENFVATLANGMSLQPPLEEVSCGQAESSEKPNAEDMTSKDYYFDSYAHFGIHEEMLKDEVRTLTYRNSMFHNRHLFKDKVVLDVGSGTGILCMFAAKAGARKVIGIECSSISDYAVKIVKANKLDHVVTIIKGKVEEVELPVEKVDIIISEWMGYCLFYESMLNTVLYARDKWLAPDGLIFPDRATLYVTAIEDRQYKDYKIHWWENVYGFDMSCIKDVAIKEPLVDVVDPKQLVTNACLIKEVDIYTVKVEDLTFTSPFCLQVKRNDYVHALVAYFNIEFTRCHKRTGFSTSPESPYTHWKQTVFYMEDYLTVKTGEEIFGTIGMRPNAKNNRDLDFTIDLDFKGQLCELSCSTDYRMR
Chain of GSTP1 C48 (P09211) (P09211 whole entry): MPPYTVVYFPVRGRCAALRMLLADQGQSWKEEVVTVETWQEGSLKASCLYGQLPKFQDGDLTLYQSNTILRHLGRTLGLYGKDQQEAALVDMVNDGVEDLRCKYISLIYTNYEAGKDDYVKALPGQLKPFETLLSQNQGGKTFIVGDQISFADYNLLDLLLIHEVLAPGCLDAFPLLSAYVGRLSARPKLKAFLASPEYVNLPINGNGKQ
Chain of IDH1 C269 (O75874) (O75874 whole entry): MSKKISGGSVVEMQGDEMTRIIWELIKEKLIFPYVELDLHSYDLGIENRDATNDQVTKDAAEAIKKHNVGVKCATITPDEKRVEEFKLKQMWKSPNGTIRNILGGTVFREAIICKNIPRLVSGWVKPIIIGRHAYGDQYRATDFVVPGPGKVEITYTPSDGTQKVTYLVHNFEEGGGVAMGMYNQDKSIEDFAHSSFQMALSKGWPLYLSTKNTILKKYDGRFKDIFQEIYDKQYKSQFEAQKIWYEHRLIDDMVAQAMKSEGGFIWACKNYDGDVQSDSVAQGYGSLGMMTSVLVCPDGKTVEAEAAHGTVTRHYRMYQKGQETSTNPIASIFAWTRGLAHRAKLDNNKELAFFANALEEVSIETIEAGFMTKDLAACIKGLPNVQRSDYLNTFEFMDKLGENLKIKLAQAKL
Chain of XPO1 C34 (O14980) (O14980 whole entry): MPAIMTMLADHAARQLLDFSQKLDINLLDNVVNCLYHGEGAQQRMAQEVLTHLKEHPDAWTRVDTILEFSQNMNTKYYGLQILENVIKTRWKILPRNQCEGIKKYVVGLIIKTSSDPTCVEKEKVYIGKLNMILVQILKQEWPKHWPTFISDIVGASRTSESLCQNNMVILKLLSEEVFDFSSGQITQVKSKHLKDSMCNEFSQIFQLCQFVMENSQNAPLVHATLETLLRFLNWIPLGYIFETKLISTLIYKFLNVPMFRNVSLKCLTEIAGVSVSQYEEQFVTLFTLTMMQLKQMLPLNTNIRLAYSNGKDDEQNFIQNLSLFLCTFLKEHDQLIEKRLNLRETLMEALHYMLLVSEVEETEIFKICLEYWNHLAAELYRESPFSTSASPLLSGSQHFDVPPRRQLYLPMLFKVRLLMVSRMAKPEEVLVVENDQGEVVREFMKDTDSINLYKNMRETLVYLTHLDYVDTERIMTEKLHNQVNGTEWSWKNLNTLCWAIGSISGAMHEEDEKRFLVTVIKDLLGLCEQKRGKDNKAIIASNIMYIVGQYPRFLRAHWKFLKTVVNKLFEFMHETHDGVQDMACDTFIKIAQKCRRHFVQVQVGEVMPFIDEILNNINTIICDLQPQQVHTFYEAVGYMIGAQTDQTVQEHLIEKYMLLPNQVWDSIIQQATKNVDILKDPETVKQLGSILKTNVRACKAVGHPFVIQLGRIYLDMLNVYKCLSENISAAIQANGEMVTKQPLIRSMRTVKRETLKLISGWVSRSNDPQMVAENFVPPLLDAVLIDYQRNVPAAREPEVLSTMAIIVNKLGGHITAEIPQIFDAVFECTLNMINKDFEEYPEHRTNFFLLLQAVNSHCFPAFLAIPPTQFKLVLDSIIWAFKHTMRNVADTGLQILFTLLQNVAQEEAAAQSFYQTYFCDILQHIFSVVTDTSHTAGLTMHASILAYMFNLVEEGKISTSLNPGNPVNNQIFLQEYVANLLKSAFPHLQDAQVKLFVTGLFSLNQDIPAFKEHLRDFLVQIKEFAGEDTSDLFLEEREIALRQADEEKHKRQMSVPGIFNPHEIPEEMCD

In the case of `O=C(/C=C/c1ccccc1)Nc1cc(C(F)(F)F)cc(C(F)(F)F)c1` [compound 26], the “isoTOP-ABPP ratio (reactivity profile), Q15084_C190” value on PDIA6 C190 (Q15084) (500 μm in-vitro ramos) amounted to 0.9. Besides, the “isoTOP-ABPP ratio (reactivity profile), Q99873_C109” value at PRMT1 C109 (Q99873) (500 μm in-vitro ramos) is 0.9. The “isoTOP-ABPP ratio (reactivity profile), P16455_C150” value on MGMT C150 (P16455) (500 μm in-vitro ramos) turned out to be 0.9. Moreover, the “isoTOP-ABPP ratio (reactivity profile), P09211_C48” value at GSTP1 C48 (P09211) (500 μm in-vitro ramos) was 0.9. The “isoTOP-ABPP ratio (reactivity profile), O14980_C34” value at XPO1 C34 (O14980) (500 μm in-vitro ramos) worked out at 0.9.
For the compound `O=C(CCl)Nc1cccc2ncccc12` [compound 51], the “isoTOP-ABPP reactivity profile ratio, Q15084_C190” value on PDIA6 C190 (Q15084) (in-vitro_ramos) was 5.6. In addition, the “isoTOP-ABPP reactivity profile ratio, Q99873_C109” value is reported as 9.5 at PRMT1 C109 (Q99873) (in-vitro_ramos) and 0.9 on PRMT1 C109 (Q99873) (in-vitro_ramos_231). For the same compound, the “blockade of IA-alkyne labeling of C109 of PRMT1” value on PRMT1 C109 (Q99873) (competitive isoTOP-ABPP) was “blocking IA-alkyne labeling”. The “isoTOP-ABPP reactivity profile ratio, P09211_C48” value at GSTP1 C48 (P09211) (in-vitro_ramos) came out at 1.0; on GSTP1 C48 (P09211) (in-vitro_ramos_231) it was 1.1. Also, the “isoTOP-ABPP reactivity profile ratio, O14980_C34” value on XPO1 C34 (O14980) (in-vitro_ramos) amounted to 1.0; on XPO1 C34 (O14980) (in-vitro_ramos_231) it was 0.9. Also, at PCK2 C306 (Q16822) (in-vitro_ramos), the “isoTOP-ABPP reactivity profile ratio, Q16822_C306” value was found to be 0.8.
On to `CC1CCc2ccccc2N1C(=O)CCl` (stereo not drawn) [compound 45], for which the “isoTOP-ABPP reactivity profile ratio, Q99873_C109” value on PRMT1 C109 (Q99873) (in-vitro_ramos_231) is 2.2. Moreover, the “isoTOP-ABPP reactivity profile ratio, O75874_C269” value at IDH1 C269 (O75874) was 20.0. Also, at GSTP1 C48 (P09211) (in-vitro_ramos_231), the “isoTOP-ABPP reactivity profile ratio, P09211_C48” value worked out at 19.7. Besides, the “isoTOP-ABPP reactivity profile ratio, O14980_C34” value at XPO1 C34 (O14980) (in-vitro_ramos_231) is reported as 1.8. Moreover, on PCK2 C306 (Q16822) (in-vitro_ramos_231), the “isoTOP-ABPP reactivity profile ratio, Q16822_C306” value came out at 3.3.
For `O=C(CCl)NC1C(O)OC(CO)C(O)C1O` (mixture of isomers) [compound 44], the “isoTOP-ABPP reactivity profile ratio, Q15084_C190” value on PDIA6 C190 (Q15084) (in-vitro_ramos_231) amounted to 1.0. Also, at PRMT1 C109 (Q99873) (in-vitro_ramos_231), the “isoTOP-ABPP reactivity profile ratio, Q99873_C109” value was found to be 0.8. The “isoTOP-ABPP reactivity profile ratio, O75874_C269” value on IDH1 C269 (O75874) is 0.8. In addition, the “isoTOP-ABPP reactivity profile ratio, P09211_C48” value at GSTP1 C48 (P09211) (in-vitro_ramos_231) came out at 0.9. In addition, the “isoTOP-ABPP reactivity profile ratio, O14980_C34” value at XPO1 C34 (O14980) (in-vitro_ramos_231) is reported as 0.8.
For the compound `O=C(CCl)NC(=O)NC12CC3CC(CC(C3)C1)C2` [compound 12], the “isoTOP-ABPP ratio, Q15084_C190” value at PDIA6 C190 (Q15084) (500 μM, invitro, ramos) was 20.0. Moreover, the “isoTOP-ABPP ratio, Q99873_C109” value at PRMT1 C109 (Q99873) (231) turned out to be 1.4; at PRMT1 C109 (Q99873) (ramos) it was 1.3. Moreover, at MGMT C150 (P16455) (500 μM, invitro, ramos), the “isoTOP-ABPP ratio, P16455_C150” value is 20.0. Besides, the “isoTOP-ABPP ratio, P09211_C48” value at GSTP1 C48 (P09211) (231) was 2.9; on GSTP1 C48 (P09211) (ramos), 1.1. For the same compound, the “isoTOP-ABPP ratio, O14980_C34” value on XPO1 C34 (O14980) (231) is given as 1.2; on XPO1 C34 (O14980) (ramos), 0.7. In addition, the “isoTOP-ABPP ratio, Q16822_C306” value on PCK2 C306 (Q16822) (231) was 1.5; on PCK2 C306 (Q16822) (ramos), 0.7.
As for `O=C(CCl)N1CCc2cc(Br)ccc21` [compound 50], the “isoTOP-ABPP reactivity profile ratio, Q99873_C109” value at PRMT1 C109 (Q99873) (in-vitro_ramos_231) was found to be 1.0. In addition, the “isoTOP-ABPP reactivity profile ratio, O75874_C269” value on IDH1 C269 (O75874) was 20.0. Besides, the “isoTOP-ABPP reactivity profile ratio, P09211_C48” value at GSTP1 C48 (P09211) (in-vitro_ramos_231) was determined as 2.3. Further, the “isoTOP-ABPP reactivity profile ratio, O14980_C34” value at XPO1 C34 (O14980) (in-vitro_ramos_231) was 1.2. In addition, the “isoTOP-ABPP reactivity profile ratio, Q16822_C306” value at PCK2 C306 (Q16822) (in-vitro_ramos_231) is reported as 2.7.
